{"source": "ChEMBL document CHEMBL5620344", "about": "“Discovery of novel 5-(2-hydroxyphenyl)-2-phthalide-3(3H)-pyrazolones as balanced multifunctional agents against Alzheimer's disease” (Eur J Med Chem, 2023)", "key": {"[1]": {"test_system": "BV-2", "test": "Anti-neuroinflammatory activity against LPS-stimulated mouse BV-2 cells assessed as inhibition of TNF-alpha release at 10 uM by ELISA", "type": "functional"}, "[2]": {"test": "Tmax in BALB/c mouse plasma at 30 mg/kg, ig", "type": "ADME, organism-based", "conditions": "po"}, "[3]": {"test_system": "BV-2", "test": "Antioxidant activity against LPS-stimulated mouse BV-2 cells assessed as inhibition of ROS generation by measuring decrease in fluorescence intensity at 2.5 to 10 uM by DCFH-DA staining based fluorescence microscopy", "type": "functional, cell-based", "conditions": "dose 2.5-10 µM"}, "[4]": {"test": "Antioxidant activity assessed as trolox equivalent of ORAC radical scavenging activity by ORAC-FL assay relative to trolox", "type": "functional"}, "[5]": {"test_system": "BV-2", "test": "Anti-neuroinflammatory activity against LPS-stimulated mouse BV-2 cells assessed as inhibition of NO release at 2.5 uM incubated for 24 hrs by Griess reagent based assay", "type": "functional"}, "[6]": {"test_system": "Mus musculus", "test": "Antialzheimer activity against amyloid beta (1-42)-induced alzheimer's disease mouse model assessed as decrease in amyloid beta (1 to 42) level in hippocampus at 32 mg/kg and measured on day 6 by ELISA", "type": "functional, organism-based", "conditions": "time 6.0 day"}, "[7]": {"test": "Half life in BALB/c mouse brain at 30 mg/kg, ig", "type": "ADME, organism-based", "conditions": "po"}, "[8]": {"target": "Amyloid-beta precursor protein (Homo sapiens) (UniProt P05067)", "sequence (P05067 whole entry)": "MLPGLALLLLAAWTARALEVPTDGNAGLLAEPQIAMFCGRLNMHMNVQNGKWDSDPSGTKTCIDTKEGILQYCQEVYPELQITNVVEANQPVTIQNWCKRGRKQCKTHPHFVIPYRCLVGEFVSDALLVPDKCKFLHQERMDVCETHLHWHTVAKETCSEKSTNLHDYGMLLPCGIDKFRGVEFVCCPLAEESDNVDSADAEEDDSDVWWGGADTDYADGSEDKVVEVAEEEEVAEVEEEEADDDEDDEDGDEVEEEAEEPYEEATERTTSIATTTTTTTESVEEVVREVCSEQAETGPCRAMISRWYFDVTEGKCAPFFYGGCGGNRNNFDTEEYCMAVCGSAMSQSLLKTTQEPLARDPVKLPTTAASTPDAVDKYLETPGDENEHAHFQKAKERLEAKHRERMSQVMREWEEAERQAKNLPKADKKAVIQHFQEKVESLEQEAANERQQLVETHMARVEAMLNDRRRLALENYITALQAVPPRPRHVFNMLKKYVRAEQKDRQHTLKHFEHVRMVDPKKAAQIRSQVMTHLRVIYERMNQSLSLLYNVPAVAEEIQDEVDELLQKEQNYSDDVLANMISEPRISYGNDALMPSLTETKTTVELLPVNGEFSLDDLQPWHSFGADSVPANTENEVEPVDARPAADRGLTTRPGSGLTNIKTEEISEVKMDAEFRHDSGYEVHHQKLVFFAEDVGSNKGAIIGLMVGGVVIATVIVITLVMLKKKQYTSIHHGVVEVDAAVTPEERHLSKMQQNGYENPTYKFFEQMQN", "test": "Disaggregation of Cu2+-induced amyloid beta (1 to 42) (unknown origin) preformed fibrils at 25 uM by ThT fluorescence assay"}, "[9]": {"test": "Metal chelating activity assessed as compound-Fe3+ complex formation by measuring blue shift of maximum absorption peak at 37.5 uM in presence of FeCl3 by UV-Vis spectrometry"}, "[10]": {"target": "Amyloid-beta precursor protein (Homo sapiens) (UniProt P05067)", "test": "Inhibition of Cu2+-induced amyloid beta (1 to 42) (unknown origin) aggregation assessed as fewer amyloid beta (1 to 42) fibrils formation incubated for 24 hrs by transmission electron microscopy"}, "[11]": {"test": "Half life in BALB/c mouse plasma at 30 mg/kg, ig", "type": "ADME, organism-based", "conditions": "po"}, "[12]": {"target": "T1, MAO-A (Homo sapiens, UniProt P21397)", "T1 sequence (P21397 whole entry)": "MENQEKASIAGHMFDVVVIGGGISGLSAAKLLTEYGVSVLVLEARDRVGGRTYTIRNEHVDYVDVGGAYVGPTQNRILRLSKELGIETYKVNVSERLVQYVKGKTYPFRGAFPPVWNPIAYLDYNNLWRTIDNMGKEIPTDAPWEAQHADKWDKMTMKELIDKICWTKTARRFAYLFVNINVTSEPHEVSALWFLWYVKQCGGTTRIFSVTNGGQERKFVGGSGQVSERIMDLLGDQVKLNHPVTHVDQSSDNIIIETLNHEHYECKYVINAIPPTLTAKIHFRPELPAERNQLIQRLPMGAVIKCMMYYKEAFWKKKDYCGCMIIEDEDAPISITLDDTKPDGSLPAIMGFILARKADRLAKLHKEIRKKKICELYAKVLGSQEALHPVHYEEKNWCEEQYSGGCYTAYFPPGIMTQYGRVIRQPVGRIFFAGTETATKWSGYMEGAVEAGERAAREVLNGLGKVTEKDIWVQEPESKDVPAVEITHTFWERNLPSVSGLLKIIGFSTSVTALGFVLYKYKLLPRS", "test": "Inhibition of human recombinant MAO-A at 10 uM"}, "[13]": {"test": "Metal chelating activity assessed as compound-Al3+ complex formation by measuring blue shift of maximum absorption peak at 37.5 uM in presence of AlCl3 by UV-Vis spectrometry"}, "[14]": {"test_system": "PC-12", "test": "Neuroprotective activity against H2O2-induced cytotoxicity in rat PC12 cells assessed as cell viability at 1 uM by MTT assay (reference value: 54.9%)", "type": "functional", "conditions": "read-out: Activity"}, "[15]": {"test_system": "PC-12", "test": "Neuroprotective activity against H2O2-induced cytotoxicity in rat PC12 cells assessed as cell viability at 2.5 uM by MTT assay (reference value: 54.9%)", "type": "functional", "conditions": "read-out: Activity"}, "[16]": {"test": "Tmax in BALB/c mouse brain at 30 mg/kg, ig", "type": "ADME, organism-based", "conditions": "po"}, "[17]": {"test_system": "Mus musculus", "test": "Anti-oxidative stress against amyloid beta (1-42)-induced alzheimer's disease mouse model assessed as decrease in MDA content in hippocampus at 8 to 32 mg/kg and measured on day 6", "type": "functional, organism-based", "conditions": "dose 8-32 mg/kg, time 6.0 day"}, "[18]": {"test_system": "BV-2", "test": "Anti-neuroinflammatory activity against LPS-stimulated mouse BV-2 cells assessed as inhibition of TNF-alpha release at 0.5 uM by ELISA", "type": "functional"}, "[19]": {"test": "AUC (0 to t) in BALB/c mouse brain at 30 mg/kg, ig", "type": "ADME, organism-based", "conditions": "in vivo, po"}, "[20]": {"target": "Amyloid-beta precursor protein (Homo sapiens) (UniProt P05067)", "test": "Inhibition of self-induced amyloid beta (1 to 42) (unknown origin) aggregation assessed as decrease in number of aggregates formed incubated for 24 hrs by transmission electron microscopy"}, "[21]": {"test_system": "BV-2", "test": "Anti-neuroinflammatory activity against LPS-stimulated mouse BV-2 cells assessed as inhibition of NO release at 10 uM incubated for 24 hrs by Griess reagent based assay", "type": "functional"}, "[22]": {"test": "Ratio of AUC in brain to plasma in BALB/c at 30 mg/kg, ig", "type": "ADME, organism-based", "conditions": "mouse, po"}, "[23]": {"test": "Metal chelating activity assessed as compound-Zn2+ complex formation by measuring red shift of absorption peak with declined absorption at 37.5 uM in presence of ZnCl2 by UV-Vis spectrometry"}, "[24]": {"test": "Metal chelating activity assessed as compound-Fe2+ complex formation by measuring increase in absorbance at 37.5 uM in presence of FeSO4 by UV-vis spectrometry"}, "[25]": {"target": "Amyloid-beta precursor protein (Homo sapiens) (UniProt P05067)", "test": "Disaggregation of Cu2+-induced amyloid beta (1 to 42) (unknown origin) preformed fibrils assessed as degradation of crude fibrils incubated for 24 hrs by transmission electron microcopy"}, "[26]": {"test": "AUC (0 to t) in BALB/c mouse plasma at 30 mg/kg, ig", "type": "ADME, organism-based", "conditions": "po"}, "[27]": {"test": "Metal chelating activity assessed as compound-Cu2+ complex formation by measuring red shift of absorption peak with declined absorption at 37.5 uM in presence of CuCl2 by UV-Vis spectrometry"}, "[28]": {"test": "Antioxidant activity assessed as inhibition of Cu2+-induced ROS production by measuring decrease in fluorescence intensity in presence of Cu2+ and ascorbate by CCA-dye based fluorescence analysis", "type": "functional"}, "[29]": {"target": "Amyloid-beta precursor protein (Homo sapiens) (UniProt P05067)", "test": "Inhibition of self-induced amyloid beta (1 to 42) (unknown origin) aggregation at 25 uM by ThT fluorescence assay"}, "[30]": {"test_system": "Mus musculus", "test": "Anti-oxidative stress against amyloid beta (1-42)-induced alzheimer's disease mouse model assessed as increase in SOD activity in hippocampus at 8 to 32 mg/kg and measured on day 6", "type": "functional, organism-based", "conditions": "dose 8-32 mg/kg, time 6.0 day"}, "[31]": {"test": "Cmax in BALB/c mouse plasma at 30 mg/kg, ig", "type": "ADME, organism-based", "conditions": "po"}, "[32]": {"test_system": "BV-2", "test": "Anti-neuroinflammatory activity against LPS-stimulated mouse BV-2 cells assessed as inhibition of TNF-alpha release at 2.5 uM by ELISA", "type": "functional"}, "[33]": {"target": "Amyloid-beta precursor protein (Homo sapiens) (UniProt P05067)", "test": "Inhibition of self-induced amyloid beta (1 to 42) (unknown origin) aggregation assessed as short and thin fibrils incubated for 24 hrs by transmission electron microscopy"}, "[34]": {"target": "Amyloid-beta precursor protein (Homo sapiens) (UniProt P05067)", "test": "Disaggregation of self-induced amyloid beta (1 to 42) (unknown origin) preformed fibrils at 25 uM by ThT fluorescence assay"}}, "note": "Active and inactive are the calls of the source. The calls are words filed in the database; no cut-off is given here.", "data": [{"smiles": "CCCCCCCC1OC(=O)c2cc(N3N=C(c4cc(Cl)ccc4O)CC3=O)ccc21", "note": "(centres undefined)", "values": [{"measurement": "inhibition at 10 µM", "setting": "[1]", "result": 71.6, "unit": "%"}, {"measurement": "Tmax", "setting": "[2]", "result": 0.5, "unit": "h"}, {"measurement": "Activity", "setting": "[3]", "result": "Active"}, {"measurement": "Ratio", "setting": "[4]", "result": 1.16, "unit": "equiv"}, {"measurement": "inhibition at 2.5 µM", "setting": "[5]", "result": 37.9, "unit": "%"}, {"measurement": "Activity", "setting": "[6]", "result": "Active"}, {"measurement": "half-life", "setting": "[7]", "result": 2.07, "unit": "h"}, {"measurement": "Activity", "setting": "[8]", "result": 82.4, "unit": "%"}, {"measurement": "Activity", "setting": "[9]", "result": "Active"}, {"measurement": "inhibition", "setting": "[10]", "result": "Active"}, {"measurement": "half-life", "setting": "[11]", "result": 1.15, "unit": "h"}, {"measurement": "inhibition at 10 µM", "setting": "[12]", "result": 32.6, "unit": "%"}, {"measurement": "Activity", "setting": "[13]", "result": "Active"}, {"measurement": "viability at 1 µM", "setting": "[14]", "result": 66.9, "unit": "%"}, {"measurement": "viability at 2.5 µM", "setting": "[15]", "result": 73.4, "unit": "%"}, {"measurement": "Tmax", "setting": "[16]", "result": 1, "unit": "h"}, {"measurement": "Activity", "setting": "[17]", "result": "Dose-Dependent Effect"}, {"measurement": "inhibition at 0.5 µM", "setting": "[18]", "result": 22.7, "unit": "%"}, {"measurement": "AUCt", "setting": "[19]", "result": 2032.5, "unit": "ng·h/g"}, {"measurement": "inhibition", "setting": "[20]", "result": "Active"}, {"measurement": "inhibition at 10 µM", "setting": "[21]", "result": 76.3, "unit": "%"}, {"measurement": "Kp", "setting": "[22]", "result": 0.69}, {"measurement": "Activity", "setting": "[23]", "result": "Active"}, {"measurement": "Activity", "setting": "[24]", "result": "Active"}, {"measurement": "Activity", "setting": "[25]", "result": "Active"}, {"measurement": "AUC(0-t)", "setting": "[26]", "result": 2940, "unit": "ng·h/mL"}, {"measurement": "Activity", "setting": "[27]", "result": "Active"}, {"measurement": "Activity", "setting": "[28]", "result": "Active"}, {"measurement": "inhibition", "setting": "[29]", "result": 56, "unit": "%"}, {"measurement": "Activity", "setting": "[30]", "result": "Dose-Dependent Effect"}, {"measurement": "Cmax", "setting": "[31]", "result": 1540, "unit": "ng/mL"}, {"measurement": "inhibition at 2.5 µM", "setting": "[32]", "result": 51.6, "unit": "%"}, {"measurement": "inhibition", "setting": "[33]", "result": "Active"}, {"measurement": "Activity", "setting": "[34]", "result": 81.9, "unit": "%"}]}]}
